In patent publication US8344135B2, “Heterocyclic compound and use thereof” (Takeda Pharmaceutical Company Limited, priority 2007, dated 2013) one finds IC50 and inhibition data, which are given here for 17 compounds.

Where only a bound is given, the exact number is not on record here.

One experiment concerns MEK1/2 phosphorylation (Ser217/221) in HT-29 cells. Kind of experiment: Colon cancer cell HT-29 intracellular MEK phosphorylation inhibitory action in vitro. The class given is cell-based. To be noted: Homo sapiens, 2 hr treatment, Western blot of phosphorylated MEK1/2. As for the experimental part: Colon Cancer Cell HT-29 Intracellular MEK Phosphorylation Inhibitory Action in vitro
A cell suspension (500 μL) of human colon cancer cell HT-29 was plated in a 48-well plate (100,000 cells/well), and the cells were cultured overnight at 37° C. in the presence of 5% CO2, treated with a test compound (250 μL/well) diluted in 3-fold dilution series and cultured for two more hours. After 2 hr, the culture medium containing the test compound was removed, and the cells were lysed with SDS sample buffer (100 μL/well) and heated at 95° C. for 5 min. Thereafter, the cells were applied to SDS-PAGE, and the protein was transferred onto Sequi-Blot™ PVDF Membrane (Bio-Rad) by the Western blot method. The cells were blocked with a block-Ace solution (Snow Brand Milk Products Co., Ltd) dissolved in phosphate buffer to 5% W/V, and reacted overnight with anti-phosphorylated MEK1/2 (Ser217/221) (Cell signaling #9121) diluted 1000-fold with phosphate buffer containing 0.4% block-Ace. The membrane was washed with phosphate buffer containing 0.1% Tween 20 (Wako Pure Chemical Industries, Ltd.), and reacted at room temperature for 1 hr with HRP labeled rabbit IgG polyclonal antibody (Cell signaling #7074) diluted 1000-fold with phosphate buffer containing 0.4% block-Ace. The membrane was washed in the same manner as above, chemical luminescence of a phosphorylated MEK1/2 protein labeled with the antibody, which was caused by ECL-plus Detection Reagent (Amersham bioscience), was detected by Luminescent Image Analyzer LAS-1000 (FUJIFILM Corporation).
On the technique in general: In western blotting, separated proteins are transferred to a membrane and probed.
Consider `COc1ccc(NC(=O)c2cccc(C3(C#N)CC3)c2)cc1Oc1ccc2nc(NC(=O)CN3CCN(C)CC3)sc2n1` [Example C2, 3-(1-cyanocyclopropyl)-N-{4-methoxy-3-[(2-{[(4-methylpiperazin-1-yl)acetyl]amino}[1,3]thiazolo[5,4-b]pyridin-5-yl)oxy]phenyl}benzamide], for which the IC50 (in general, the concentration at which inhibition is half-maximal) is less than 500 nM.
Still for that read-out and setting: in the case of `Cc1ccc(NC(=O)c2cccc(C(F)(F)F)c2)cc1Oc1ccc2nc(NC(=O)CO)sc2n1` [Example C9, N-(3-{[2-(glycoloylamino)[1,3]thiazolo[5,4-b]pyridin-5-yl]oxy}-4-methylphenyl)-3-(trifluoromethyl)benzamide] it was less than 500 nM; in that of `Cc1ccc(NC(=O)c2cccc(C(F)(F)F)c2)cc1Oc1ccc2nc(NC(=O)CN3CCN(C)CC3)sc2n1` [Example C11, N-{4-methyl-3-[(2-{[(4-methylpiperazin-1-yl)acetyl]amino}[1,3]thiazolo[5,4-b]pyridin-5-yl)oxy]phenyl}-3-(trifluoromethyl)benzamide], less than 500 nM.
In the case of `Cc1ccc(NC(=O)c2cccc(C(C)(C)C#N)c2)cc1Oc1ccc2nc(NC(=O)CO)sc2n1` [Example C13, 3-(1-cyano-1-methylethyl)-N-(3-{[2-(glycoloylamino)[1,3]thiazolo[5,4-b]pyridin-5-yl]oxy}-4-methylphenyl)benzamide], the IC50 was less than 500 nM.
On to `Cc1ccc(NC(=O)c2cccc(C3(C#N)CC3)c2)cc1Oc1ccc2nc(NC(=O)C3CC3)sc2n1` [Example C16, 3-(1-cyanocyclopropyl)-N-[3-({2-[(cyclopropylcarbonyl)amino][1,3]thiazolo[5,4-b]pyridin-5-yl}oxy)-4-methylphenyl]benzamide], for which the IC50 was less than 500 nM.
On the same count and under the same terms, with `N#CC1(c2cccc(C(=O)Nc3cccc(Oc4ccc5nc(NC(=O)C6CC6)sc5n4)c3)c2)CC1` [Example C26, 3-(1-cyanocyclopropyl)-N-[3-({2-[(cyclopropylcarbonyl)amino][1,3]thiazolo[5,4-b]pyridin-5-yl}oxy)phenyl]benzamide] the figure was less than 500 nM; with `Cc1ccc(Oc2ccc3nc(NC(=O)CN4CCN(C)CC4)sc3n2)cc1NC(=O)c1cccc(C(C)(C)C#N)c1` [Example C35, 3-(1-cyano-1-methylethyl)-N-{2-methyl-5-[(2-{[(4-methylpiperazin-1-yl)acetyl]amino}[1,3]thiazolo[5,4-b]pyridin-5-yl)oxy]phenyl}benzamide], less than 500 nM.
Still for that read-out and setting: in the case of `CN(c1cccc(NC(=O)c2cccc(C(F)(F)F)c2)c1)c1ccc2nc(NC(=O)C3CC3)sc2n1` [Example C40, N-{3-[{2-[(cyclopropylcarbonyl)amino][1,3]thiazolo[5,4-b]pyridin-5-yl}(methyl)amino]phenyl}-3-(trifluoromethyl)benzamide] it was less than 500 nM.
Compound `CN1CCN(CC(=O)Nc2nc3ccc(Oc4cc(NC(=O)c5cccc(C(C)(C)C#N)c5)ccc4Cl)nc3s2)CC1` [Example C51] displayed an IC50 of less than 500 nM.
The same measure, in the same setting: with `CC(=O)Nc1nc2ccc(Oc3ccc(F)c(NC(=O)c4cccc(C5(C#N)CC5)c4Cl)c3)nc2s1` [Example C65, N-(5-{[2-(acetylamino)[1,3]thiazolo[5,4-b]pyridin-5-yl]oxy}-2-fluorophenyl)-2-chloro-3-(1-cyanocyclopropyl)benzamide] the figure was less than 500 nM.
The same measure, in the same setting: with `Cc1ccc(NC(=O)c2cccc(C(C)(C)C#N)c2)cc1Oc1ccc2nc(NC(=O)/C=C/c3ccc(Cl)cc3)sc2n1` [Example C99, N-{3-[(2-{[(2E)-3-(4-chlorophenyl)prop-2-enoyl]amino}[1,3]thiazolo[5,4-b]pyridin-5-yl)oxy]-4-methylphenyl}-3-(1-cyano-1-methylethyl)benzamide] the figure was less than 500 nM.
Compound `CN(c1cccc(NC(=O)c2cccc(C(F)(F)F)c2)c1)c1ncc2nc(NC(=O)C3CC3)sc2n1` [Example D2, N-{3-[{2-[(cyclopropylcarbonyl)amino][1,3]thiazolo[5,4-d]pyrimidin-5-yl}(methyl)amino]phenyl}-3-(trifluoromethyl)benzamide] registered a 50% inhibitory concentration (IC50) of less than 500 nM.

A further experiment deals with T1, BRAF (V600E) (Homo sapiens, UniProt P15056, V600E).
T1 construct: area encoding the BRAF kinase domain region, so that the protein contains an N-terminal Flag; made in house; host or cells: SF-21 insect cells infected with recombinant baculovirus BAC-V600E
T1 sequence (P15056 457-717 V600E limits assumed): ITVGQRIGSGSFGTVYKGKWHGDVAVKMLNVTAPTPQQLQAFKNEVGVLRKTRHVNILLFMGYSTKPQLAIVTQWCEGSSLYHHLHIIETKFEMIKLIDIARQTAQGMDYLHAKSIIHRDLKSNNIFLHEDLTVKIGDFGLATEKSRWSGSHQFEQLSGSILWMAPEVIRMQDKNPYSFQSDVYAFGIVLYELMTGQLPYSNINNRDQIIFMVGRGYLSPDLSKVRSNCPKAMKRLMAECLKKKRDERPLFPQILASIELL
Briefly: Determination of BRAF (V600E) kinase inhibitory activity. The experiment is classed as biochemical. To be noted: test compound 1.0 μM; substrate GST-MEK1 (K96R); [γ-32P]ATP; read-out: Inhibitory rate (%) at 1.0 μM. Here is the method: Determination of BRAF (V600E) Kinase Inhibitory Activity
A test compound (2.5 μL) dissolved in dimethyl sulfoxide (DMSO) was added to 37.5 μL of a reaction solution (25 mM HEPES (pH 7.5), 10 mM magnesium acetate, 1 mM dithiothreitol) containing BRAF (V600E) enzyme (30 ng) and recombinant type protein GST-MEK1 (K96R) 250 ng, and the mixture was incubated at room temperature for 10 min. ATP solution (10 μL, 2.5 μM ATP, 0.1 μCi [γ-^32P]ATP) was added to the obtained mixture, and the mixture was reacted at room temperature for 20 min. The reaction was quenched by adding 50 μL of ice-cooled 20% trichloroacetic acid (Wako Pure Chemical Industries, Ltd.). The reaction solution was allowed to stand at 4° C. for 30 min, and the acid-precipitable fraction was transferred to GF/C filter plate (Millipore Corporation) using cell harvester (PerkinElmer). The plate was dried at 45° C. for 60 min, and 40 μL of MicroScinti 0 (PerkinElmer) was added thereto. The radioactivity was measured using TopCount (PerkinElmer). The kinase inhibitory rate (%) of the test compound was calculated by the following formula: Inhibitory rate (%)=(1−(count of test compound−blank)÷(control−blank))×100
The count of the solution reacted without addition of the compound was used as a “control”, and the count of the solution without the compound and enzyme was used as a “blank”.
Regarding `O=C(Nc1cccc(Nc2ccc3nc(NC(=O)C4CC4)sc3n2)c1)c1cccc(C(F)(F)F)c1` [Example C41, N-[3-({2-[(cyclopropylcarbonyl)amino][1,3]thiazolo[5,4-b]pyridin-5-yl}amino)phenyl]-3-(trifluoromethyl)benzamide], the inhibition at 1 µM stood at 100%.
For `CC(C)(C#N)c1cccc(C(=O)Nc2cc(Oc3ccc4nc(NC(=O)C5CC5)sc4n3)c(Cl)cc2F)c1` [Example C60, N-[4-chloro-5-({2-[(cyclopropylcarbonyl)amino][1,3]thiazolo[5,4-b]pyridin-5-yl}oxy)-2-fluorophenyl]-3-(1-cyano-1-methylethyl)benzamide], the inhibition at 1 µM came to 100%.
Take `CC(C)(C#N)c1cccc(C(=O)Nc2cc(Oc3ccc4nc(NC(=O)C5CC5)sc4n3)ccc2F)c1Cl` [Example C63, 2-chloro-3-(1-cyano-1-methylethyl)-N-[5-({2-[(cyclopropylcarbonyl)amino][1,3]thiazolo[5,4-b]pyridin-5-yl}oxy)-2-fluorophenyl]benzamide]: the inhibition at 1 µM is 101%.
In the case of `N#CC1(c2cccc(C(=O)Nc3cc(Oc4ccc5nc(NC(=O)C6CC6)sc5n4)c(F)cc3F)c2Cl)CC1` [Example C75, 2-chloro-3-(1-cyanocyclopropyl)-N-[5-({2-[(cyclopropylcarbonyl)amino][1,3]thiazolo[5,4-b]pyridin-5-yl}oxy)-2,4-difluorophenyl]benzamide], the inhibition at 1 µM was determined as 100%.
In the case of `CC(=O)Nc1nc2cnc(N(C)c3cccc(NC(=O)c4cccc(C(F)(F)F)c4)c3)nc2s1` [Example D1, N-{3-[[2-(acetylamino)[1,3]thiazolo[5,4-d]pyrimidin-5-yl](methyl)amino]phenyl}-3-(trifluoromethyl)benzamide], the inhibition at 1 µM was found to be 98%.
